In PMC8397403, “Physiologically Based Pharmacokinetic Modeling of Transporter-Mediated Hepatic Disposition of Imaging Biomarker Gadoxetate in Rats” (Molecular Pharmaceutics, 2021):
Where two headings read alike, the source gives them in different places.

How the values were obtained:
[1] = Pitavastatin uptake in plated rat hepatocytes with and without rifamycin SV (positive control for transporter activity); format: in vitro ADME; conditions: male, Sprague-Dawley, rat, plated primary rat hepatocytes; pitavastatin 0.2 μM, absence of rifamycin SV, 0.5-2 min; mean (CV 24%); read-out: Unbound intrinsic uptake clearance (CLint,u)
Protocol: (§1) Male adult Sprague-Dawley rats (Charles River, Margate, Kent, UK) were housed in groups of two in individually ventilated cages with free access to food (Chow rat and mouse diet) and fresh drinking water. The designated rat housing facility maintained a controlled temperature (20 ± 3 °C), humidity (40–70%), and 12 h light/dark cycle conditions. All animal protocols were approved by the University of Manchester review committee and adhered to the UK Home Office Animals (Scientific Procedures) Act (1986). Rats (250–300 g) were sacrificed using CO2 overdose followed by cervical dislocation in the morning of the study day. The kinetics experiment, as described below, was performed using n = 4 animals. […] Following sample preparation including addition of internal standard (Table S1), gadoxetate and pitavastatin in cell samples, and gadoxetate in media samples, were quantified by liquid chromatography–tandem mass spectrometry (LC–MS/MS). LC–MS/MS quantification was performed using selective reaction monitoring (SRM) against calibration standards; only standards within 30% of nominal concentration were included. The protein content of plated rat hepatocytes was measured using the Pierce BCA Protein Assay Kit (Thermo Fisher Scientific, Paisley, UK). […]

[2] = tested on: active uptake transport of gadoxetate into the liver; test: Simultaneous PBPK fitting of gadoxetate DCE-MRI data in control and rifampicin phases; format: in vivo, rat; conditions: Rattus norvegicus
Protocol: DCE–MRI data generated using the 3D Fast Low Angle Shot RF-spoiled gradient echo sequence (FLASH) protocol in male Wistar-Han rats were used for assessing the PBPK IVIVE performances and for obtaining some of the PBPK parameters within the bottom-up and top-down approaches, respectively. The DCE–MRI data were acquired in a multicenter study at two magnetic field strengths, 4.7 and 7 T. Gadoxetate was administered at a dose of 25 μmol/kg, either alone or 1 h after IV administration of 10 mg/kg rifampicin. When gadoxetate was administered alone (control arm), 43 profiles of blood, spleen, and liver measured at a field strength of 4.7 T and 52 profiles of blood, spleen, and liver measured at 7 T were available. In the case of gadoxetate administered with rifampicin, 7 blood, spleen, and liver profiles at a field strength equal to 4.7 T and 6 at 7 T were available. All gadoxetate DCE–MRI data and study protocols are detailed in a companion paper (Hines et al. in submission).
The DCE–MRI data used in this study were reported as ΔR1. Therefore, the relationship between the compartmental concentrations represented by the PBPK model state variables and the ΔR1 measurements for the blood, liver, and spleen needed to be described. The linear relationship in eq 4 is not valid for ΔR1 of the liver, ΔR1,liv, because intracellular and extracellular tissue compartments have different relaxivities. To derive ΔR1,liv, a volume fraction-weighted mean of the contributions of the gadoxetate concentration in all the compartments used to model the liver was performed.[40] In the spleen, the entire distribution space was supposed to have the same relaxivity as blood and, therefore, eq 4 can be applied directly to derive spleen concentrations from ΔR1,spl. Concerning the blood, the blood value for r1 in Table 1 allows ΔR1,b to be directly related to the blood concentration. The relations between ΔR1,liv, ΔR1,spl, and ΔR1,b and the concentrations of the PBPK compartments are shown in eq 7. [drawing 7] 7 cspl,extr is the extracellular concentration in the spleen and Vspl,extr is the extracellular volume of the spleen and Vliv and Vspl are the whole volumes of liver and spleen. r1,liv,extr and r1,spl,extr were assumed to be equal to r1,b, as described in Hines et al.
In fact, each of the data are acquired during a time interval Δt, which was 57 s in the current dataset. To account for this characteristic when performing the parameter estimation, the residuals were calculated as the difference of the observed ΔR1 corresponding to a given time interval minus the mean of the simulated PBPK ΔR1 within the same interval, as explained in the Supporting Information, Section 4.
The extent of interaction with rifampicin was estimated by performing a simultaneous fitting of gadoxetate ΔR1 in the control and inhibitory phase. In this analysis, PS was considered the same for both phases, whereas the other parameters were separately estimated in the absence (CLactive and CLbiliary) and in the presence of rifampicin (CLactive,inh and CLbiliary,inh). CLbiliary,inh was considered to account for possible inhibition of Mrp2 in rat by rifampicin, as previously reported.[45] To understand the impact of the inclusion of the liver-imaging data on the parameter optimization, the simultaneous estimation was also performed considering only the blood data.
All the PBPK analyses were performed in MATLAB R2020a,[50] the ordinary differential equations were solved with the function “ode15s”, while the parameter optimization was performed with the function “lsqnonlin”. The uncertainty of the parameters estimate was evaluated with the case-bootstrap,[51] using 1000 samples.

plated rat hepatocytes = test: Pitavastatin uptake in plated rat hepatocytes with and without rifamycin SV (positive control for transporter activity); format: in vitro ADME; conditions: 100 μM rifamycin SV; pitavastatin 0.2 μM; mean (CV 23%)
Protocol: as §1

O=C(O)C[C@H](O)C[C@H](O)/C=C/c1c(C2CC2)nc2ccccc2c1-c1ccc(F)cc1 [pitavastatin]
hepatocyte CLint at 0.2 μM [1]: 95.7 µL/min/1e6 cells

CO[C@H]1/C=C/O[C@@]2(C)Oc3c(C)c(O)c4c(O)c(c(/C=N/N5CCN(C)CC5)c(O)c4c3C2=O)NC(=O)/C(C)=C\C=C\[C@H](C)[C@H](O)[C@@H](C)[C@@H](O)[C@@H](C)[C@H](OC(C)=O)[C@@H]1C [rifampicin]
inhibition at 10 mg/kg ([2]; iv, rifampicin i.v. 10 mg/kg, fit with blood, spleen and liver data, read-out: inhibition of gadoxetate CLactive (active uptake into the liver)): 96% | inhibition at 10 mg/kg ([2]; rifampicin 10 mg/kg, only blood ΔR1 profiles (without liver data), read-out: inhibition of gadoxetate CLactive, blood ΔR1 only): 84%

CO[C@H]1/C=C/O[C@@]2(C)Oc3c(C)c(O)c4c(O)c(cc(O)c4c3C2=O)NC(=O)/C(C)=C\C=C\[C@H](C)[C@H](O)[C@@H](C)[C@@H](O)[C@@H](C)[C@H](OC(C)=O)[C@@H]1C [rifamycin SV]
reduction of the uptake of pitavastatin (plated rat hepatocytes): 54%
